We go through four compounds from patent US9056999B2, “Ultraviolet-curable aqueous ink, ink cartridge, recording apparatus and recording method” (Fuji Xerox Co., Ltd., priority 2013, dated 2015).

A short description of this series: Solubility of thioxanthone compound and tertiary amine compound in water-soluble organic solvent at 25° C.
[1] abbreviates: in 4-(2-hydroxyethyl)morpholine.
Setting [2] is: in 3-morpholino-1,2-propanediol.

For the compound `CC(C)c1ccc2sc3ccccc3c(=O)c2c1` [2-isopropylthioxanthone], the “solubility (25° C.)” value (in 4-ethylmorpholine) is 30 mass %.

For `CCOC(=O)c1ccc(N(CC)CC)cc1` [4-diethylamino ethyl benzoate], the “solubility (25° C.)” value under setting [1] came to 27 mass %.

Take `CCc1cc(CC)c2sc3ccccc3c(=O)c2c1` [Kayacure DETX-S, 2,4-diethylthioxanthone]: the “solubility (25° C.)” value was found to be 17 mass % (in 2-(2-butoxyethoxy)ethanol); 4 mass % (in 3-methylsulfolane); 9 mass % under setting [2]; 14 mass % (in 4-(2-aminoethyl)morpholine); 15 mass % under setting [1]; 20 mass % (in 4-acetylmorpholine).

On to `CCOC(=O)c1ccc(N(C)C)cc1` [Kayacure EPA, 4-dimethylamino ethyl benzoate], for which the “solubility (25° C.)” value amounted to 30 mass % (in 2-(2-butoxyethoxy)ethanol); 18 mass % (in 3-methylsulfolane); 30 mass % under setting [2]; 30 mass % (in 4-(2-aminoethyl)morpholine); 30 mass % under setting [1]; 35 mass % (in 4-acetylmorpholine). Also, the “solubility (25° C.)” value was found to be 40 mass % (in 4-ethylmorpholine) and 18 mass % (in 4-hydroxypropylmorpholine).
